Assay results published in US20230405151A1, “USE OF IRAK4 MODULATORS FOR GENE THERAPY” (Genzyme Corporation, priority 2022, published 2023).

What was measured:
IRAK4 protein [1] = biological target: T1, IRAK4 protein (Mus musculus, UniProt Q8R4K2); test: In vivo mouse AAV model: IRAK4 expression in PBMC immune cell types by flow cytometry; conditions: chow 100 mg/kg from 15 days prior to AAV; day 14; N=6
T1 construct: from tissue; host or cells: PBMCs from blood of C57BL/6J mice
T1 sequence (Q8R4K2 1-459): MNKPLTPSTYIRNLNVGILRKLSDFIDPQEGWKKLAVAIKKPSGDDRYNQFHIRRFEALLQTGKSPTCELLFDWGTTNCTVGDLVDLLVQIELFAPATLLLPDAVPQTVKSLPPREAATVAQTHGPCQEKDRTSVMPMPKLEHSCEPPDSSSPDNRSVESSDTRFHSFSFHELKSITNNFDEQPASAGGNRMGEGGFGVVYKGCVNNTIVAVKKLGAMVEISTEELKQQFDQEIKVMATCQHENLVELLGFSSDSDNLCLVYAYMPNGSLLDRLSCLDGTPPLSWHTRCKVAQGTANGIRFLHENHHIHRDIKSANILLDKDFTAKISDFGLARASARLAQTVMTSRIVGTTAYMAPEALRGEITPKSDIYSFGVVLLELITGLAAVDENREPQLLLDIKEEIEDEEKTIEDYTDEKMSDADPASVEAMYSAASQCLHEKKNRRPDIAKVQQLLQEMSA
Method: The same experiment design was followed with n=6 mice in each group PBS group, AAV group and AAV+IRAK4 degrader PROTAC IRAK4 degrader-1 Cat. No.: HY-129966 (MedChemExpress) that was mixed with chow at 100 mg/kg and fed to mice 15 days prior to AAV injection. […] AAV capsid used in the study had LacZ transgene. All animal experiments were conducted in accordance with the Institutional Animal Care and Use Committees at Sanofi, Framingham. Submandibular bleeds were performed weekly, and necropsy was performed three weeks post AAV injection.
PBMC isolation and surface staining. 120 ul blood was collected in K2EDTA coated tubes. The blood was mixed with DBPS at 1:1 ration and pipetted into a separate tube containing Ficoll (GE17-5442-02) to ensure no mixing of the blood and Ficoll phases. The mixture was centrifuged at 2000 RPM for 25 minutes at room temperature (9 acceleration and no braking). The buffy coat containing the peripheral blood mononuclear cells (PBMCs) was collected, transferred to a new tube, and centrifuged for five minutes at 400 RCF. PBMCs were washed three times with phosphate buffered saline (PBS) containing 1% fetal bovine serum (FBS) or fetal calf serum (FCS) and counted. The PBMC cells thus obtained were stained with different antibodies to quantify percentage of different immune cell subsets in peripheral blood.
On day 14 mice were bled and PBMCs were harvested. […]

IRAK4 protein [2] = biological target: T2, IRAK4 protein (Homo sapiens, UniProt Q9NWZ3); test: AlphaLISA assay of IRAK4 protein levels in cell lysates; format: cell-based; conditions: 16 nM, 80 nM, 400 nM and 2000 nM; AAV.SAN024 MOI 1e5 24 hrs
T2 construct: endogenous in cells; host or cells: primary human monocyte-derived dendritic cells from PBMC donors
T2 sequence (Q9NWZ3 1-460): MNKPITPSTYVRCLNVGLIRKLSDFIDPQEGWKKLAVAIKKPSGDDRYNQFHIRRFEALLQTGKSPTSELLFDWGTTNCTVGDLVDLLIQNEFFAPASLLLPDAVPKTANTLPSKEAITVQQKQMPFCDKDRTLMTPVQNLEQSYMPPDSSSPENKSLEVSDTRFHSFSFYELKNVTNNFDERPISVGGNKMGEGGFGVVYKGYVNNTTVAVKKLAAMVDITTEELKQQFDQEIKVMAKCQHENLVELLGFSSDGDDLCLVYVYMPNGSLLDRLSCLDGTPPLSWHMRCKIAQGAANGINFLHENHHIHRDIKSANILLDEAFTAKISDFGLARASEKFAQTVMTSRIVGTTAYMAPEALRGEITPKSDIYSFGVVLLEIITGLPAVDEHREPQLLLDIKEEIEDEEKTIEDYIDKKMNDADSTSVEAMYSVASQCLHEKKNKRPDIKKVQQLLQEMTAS
Method: AlphaLISA assay. This assay was performed to measure the levels of IRAK4 protein in the cells. The protocol was followed as per manufacturer's recommendation Perkin Elmer (Catalog #AL3117C). Briefly, cells were lysed and 5 μL of lysates were added to Anti-IRAK4 Acceptor Beads and incubated for 30 min at 23° C., then Biotinylated Anti-IRAK4 Antibody was added and incubated for 60 min at 23° C. Finally, SA-donor beads are added and 30 min later plates are read using EnVision-Alpha Reader (615 nm) https://resources.perkinelmer.com/lab-solutions/resources/docs/MAN_AlphaLISA_IRAK4_AL3117.pdf?_gl=1*7jzf5d*_ga*MzQ4MTQ1NzA3LjE2NDY2NzY5MjI.*_ga_W34ZJ1Z1Q1*MTY3NzE5MjAyOS4zLjEuMTY3NzE5MjA2Mi4yNy4wLjA.&_ga=2.178521252.1409175695.1677192029-348145707.1646676922. The same protocol was used to measure phosphorylation levels of NFkB using AlphaLISA SureFire Ultra p-NFκB (Ser536) Assay Kit—High Volume Catalog #ALSU-PNFKB-A-HV.
To determine the activity of PROTAC degrader, human monocytic dendritic cells were treated with different doses of drugs as indicated (16 nM, 80 nM, 400 nM and 2000 nM) and the same cells were infected with AAV.SAN024 at MOI of 1e5 for 24 hrs. Cell lysates were analysed for IRAK4 degradation. No significant difference was observed between the control (untretaed/uninfected) cells as compared to the treated and AAV. SAN024 infected cells but the AAV.

How did the “IRAK4 protein expression in all immune cell types evaluated in PBMCs (PBMCs, T cells, B cells, monocytes)” value (IRAK4 protein [1]) turn out when O=C1CCC(N2C(=O)c3cccc(NCc4cn(CCCNC(=O)c5ccc(-n6cc(NC(=O)c7coc(-c8ccnc(NCC9CC9)c8)n7)c(C(F)(F)F)n6)cc5)cn4)c3C2=O)C(=O)N1 (centres unmarked) [PROTAC IRAK4 degrader-1] was run?
The value was “reduced significantly”.

And the “IRAK4 levels (IRAK4 degradation) in cell lysates” value (IRAK4 protein [2])?
Its value is “reduction of IRAK4 levels at all doses”.
